Data reported in patent US11490644B2, “Co-Q10, krill oil and vitamin D” (RB HEALTH (US) LLC, priority 2015, dated 2022).
Where two headings read alike, the source gives them in different places.

Tests used:
Format in all cases: physicochemical
[1] = Antioxidant study: influence of antioxidant on Co-Q10 stability in krill oil and Vitamin D; settings: for Amount of Co-Q10: in krill oil and Vitamin D with the antioxidant
Protocol: (§1) Several antioxidants were evaluated for their ability to stabilize Co-Q10 in krill oil and Vitamin D. The results are summarized in Table 2.

[2] = Influence of chelating agent on Co-Q10 stability; settings: with the chelating agent
[3] = Influence of antioxidant dosing on Co-Q10 stability
Protocol: as §1

[4] = Stability of Co-Q10 and Co-QH in krill oil and Vitamin D mixtures, accelerated conditions; settings: over the 12-week period; 40° C., 75% relative humidity
Protocol: Two formulations comprising Co-Q10 (Study I) and Co-QH (Study II) were evaluated for stability in krill oil and Vitamin D mixtures. The compositions were subjected to accelerated conditions (40° C., 75% relative humidity for up to 12 weeks), and the amounts of Co-Q10, Co-QH, and ubichromenol were evaluated at several time points.

[5] = antioxidant medium dose, 1 week
[6] = antioxidant medium dose, 2 weeks
[7] = antioxidant medium dose, Initial

## NC(N)=S [Thiourea]
[1]; Table 2
  Ability to stabilize Co-Q10 in krill oil and Vitamin D (in words): degrades rapidly

## CC(=O)OO [Peracetic acid (PAA), Peracetic acid]
[2]; 1 week
  Amount of Co-Q10: 10 mg
[2]; 2 weeks
  Amount of Co-Q10: 0 mg
[2]; Initial
  Amount of Co-Q10: 137 mg

## O=C1O[C@H]([C@@H](O)CO)C(O)=C1O [Ascorbic Acid]
[1]; 1 week
  Amount of Co-Q10: 133 mg
[1]; 2 weeks
  Amount of Co-Q10: 129 mg
[1]; Initial
  Amount of Co-Q10: 139 mg
[3]; antioxidant high dose, 1 week
  Amount of Co-Q10: 100 mg
[3]; antioxidant high dose, 2 weeks
  Amount of Co-Q10: 100 mg
[3]; antioxidant high dose, Initial
  Amount of Co-Q10: 109 mg
[3]; antioxidant low dose, 1 week
  Amount of Co-Q10: 91 mg
[3]; antioxidant low dose, 2 weeks
  Amount of Co-Q10: 71 mg
[3]; antioxidant low dose, Initial
  Amount of Co-Q10: 137 mg
[3]; [5]
  Amount of Co-Q10: 136 mg
[3]; [6]
  Amount of Co-Q10: 138 mg
[3]; [7]
  Amount of Co-Q10: 145 mg

## C=CCc1ccc(O)c(OC)c1 [Eugenol]
[1]
  Ability to stabilize Co-Q10 in krill oil and Vitamin D (in words): degrades rapidly
[1]; 1 week
  Amount of Co-Q10: 48 mg
[1]; 2 weeks
  Amount of Co-Q10: 25 mg
[1]; Initial
  Amount of Co-Q10: 142 mg
[3]; antioxidant high dose, 1 week
  Amount of Co-Q10: 43 mg
[3]; antioxidant high dose, 2 weeks
  Amount of Co-Q10: 26 mg
[3]; antioxidant high dose, Initial
  Amount of Co-Q10: 146 mg
[3]; antioxidant low dose, 1 week
  Amount of Co-Q10: 16 mg
[3]; antioxidant low dose, 2 weeks
  Amount of Co-Q10: 14 mg
[3]; antioxidant low dose, Initial
  Amount of Co-Q10: 142 mg
[3]; [5]
  Amount of Co-Q10: 23 mg
[3]; [6]
  Amount of Co-Q10: 16 mg
[3]; [7]
  Amount of Co-Q10: 146 mg

## COc1c(O)c(C)c(C/C=C(\C)CC/C=C(\C)CC/C=C(\C)CC/C=C(\C)CC/C=C(\C)CC/C=C(\C)CC/C=C(\C)CC/C=C(\C)CC/C=C(\C)CCC=C(C)C)c(O)c1OC [Co-QH, ubiquinol]
[4]
  Stability in krill oil and Vitamin D (in words): stable

## COC1=C(OC)C(=O)C(C/C=C(\C)CC/C=C(\C)CC/C=C(\C)CC/C=C(\C)CC/C=C(\C)CC/C=C(\C)CC/C=C(\C)CC/C=C(\C)CC/C=C(\C)CCC=C(C)C)=C(C)C1=O [Co-Q10, Coenzyme Q10]
[4]
  Stability in krill oil and Vitamin D (in words): unstable

## O=C(O)CN(CCN(CC(=O)O)CC(=O)O)CC(=O)O [EDTA]
[2]; 1 week
  Amount of Co-Q10: 10 mg
[2]; 2 weeks
  Amount of Co-Q10: 0 mg
[2]; Initial
  Amount of Co-Q10: 125 mg
